Results reported in patent publication US10787452B2 (Vertex Pharmaceuticals Incorporated, priority 2012, dated 2020).

Tested on: HCT116 colorectal cancer cells
Assay: Cisplatin sensitization assay (96 h cell viability MTS);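 further: compound concentration needed to lower the Cisplatin-alone IC50 by a set fold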
Assay type: cell-based
Conditions: 96 h MTS, compound plus Cisplatin
In short: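 Cisplatin and compound are dosed at the same time, both serially diluted 2-fold from 10 μM final across a full matrix. Plates sit at 37° C in 5% CO2 for 96 h before MTS addition.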

Compound	Cisplatin Sensitization Assay
Nc1nn2cc(F)cnc2c1C(=O)Nc1cnccc1N1CCN2C(=O)CC[C@@H]2C1 [I-N-258, (R)-2-amino-6-fluoro-N-(4-(6-oxohexahydropyrrolo[1,2-a]pyrazin-2(1H)-yl)pyridin-3-yl)pyrazolo[1,5-a]pyrimidine-3-carboxamide]	++ (Compounds with a Cisplatin sensitization value >0.02 μM but <0.2 μM are marked with “++.”)
Cn1ccc2cncc(NC(=O)c3c(N)nn4cc(F)cnc34)c21 [I-N-259, 2-amino-6-fluoro-N-(1-methyl-1H-pyrrolo[3,2-c]pyridin-7-yl)pyrazolo[1,5-a]pyrimidine-3-carboxamide]	+ (Compounds with a Cisplatin sensitization value >0.2 μM but <5 μM are marked with “+.”)
Cc1nonc1N1CCN(c2ccncc2NC(=O)c2c(N)nn3cc(F)cnc23)CC1 [I-N-260, 2-amino-6-fluoro-N-(4-(4-(4-methyl-1,2,5-oxadiazol-3-yl)piperazin-1-yl)pyridin-3-yl)pyrazolo[1,5-a]pyrimidine-3-carboxamide]	+++ (Compounds with a Cisplatin sensitization value of <0.02 μM are marked with “+++.”)
COC(=O)N1CCN(c2c(F)cncc2NC(=O)c2c(N)nn3cc(F)cnc23)CC1 [I-N-261, methyl-4-(3-(2-amino-6-fluoropyrazolo[1,5-a]pyrimidine-3-carboxamido)-5-fluoropyridin-4-yl)piperazine-1-carboxylate]	+++ (Compounds with a Cisplatin sensitization value of <0.02 μM are marked with “+++.”)
CC(=O)N1CCCC12CCN(c1ccncc1NC(=O)c1c(N)nn3cc(F)cnc13)CC2 [I-N-262, N-(4-(1-acetyl-1,8-diazaspiro[4.5]decan-8-yl)pyridin-3-yl)-2-amino-6-fluoropyrazolo[1,5-a]pyrimidine-3-carboxamide]	+++ (Compounds with a Cisplatin sensitization value of <0.02 μM are marked with “+++.”)
Cc1nncn1-c1ccncc1NC(=O)c1c(N)nn2cc(F)cnc12 [I-N-263, 2-amino-6-fluoro-N-(4-(3-methyl-4H-1,2,4-triazol-4-yl)pyridin-3-yl)pyrazolo[1,5-a]pyrimidine-3-carboxamide]	+ (Compounds with a Cisplatin sensitization value >0.2 μM but <5 μM are marked with “+.”)
Nc1nn2cc(F)cnc2c1C(=O)Nc1cnccc1N1CCCCCC1 [I-N-264, 2-amino-N-(4-(azepan-1-yl)pyridin-3-yl)-6-fluoropyrazolo[1,5-a]pyrimidine-3-carboxamide]	+ (Compounds with a Cisplatin sensitization value >0.2 μM but <5 μM are marked with “+.”)
Cc1nnc(C2CCN(c3ccncc3NC(=O)c3c(N)nn4cc(F)cnc34)CC2)o1 [I-N-265, 2-amino-6-fluoro-N-(4-(4-(5-methyl-1,3,4-oxadiazol-2-yl)piperidin-1-yl)pyridin-3-yl)pyrazolo[1,5-a]pyrimidine-3-carboxamide]	++ (Compounds with a Cisplatin sensitization value >0.02 μM but <0.2 μM are marked with “++.”)
COC1CCN(c2ccncc2NC(=O)c2c(N)nn3cc(F)cnc23)CC1 [I-N-266, 2-amino-6-fluoro-N-(4-(4-methoxypiperidin-1-yl)pyridin-3-yl)pyrazolo[1,5-a]pyrimidine-3-carboxamide]	+++ (Compounds with a Cisplatin sensitization value of <0.02 μM are marked with “+++.”)
CN(C)CC1CCN(c2ccncc2NC(=O)c2c(N)nn3cc(F)cnc23)CC1 [I-N-267, 2-amino-N-(4-(4-((dimethylamino)methyl)piperidin-1-yl)pyridin-3-yl)-6-fluoropyrazolo[1,5-a]pyrimidine-3-carboxamide]	+++ (Compounds with a Cisplatin sensitization value of <0.02 μM are marked with “+++.”)
Nc1nn2cc(F)cnc2c1C(=O)Nc1cnccc1N1CCC(c2nnco2)CC1 [I-N-268, N-(4-(4-(1,3,4-oxadiazol-2-yl)piperidin-1-yl)pyridin-3-yl)-2-amino-6-fluoropyrazolo[1,5-a]pyrimidine-3-carboxamide]	+++ (Compounds with a Cisplatin sensitization value of <0.02 μM are marked with “+++.”)
Cc1ncn(-c2ccncc2NC(=O)c2c(N)nn3cc(F)cnc23)c1C [I-N-269, 2-amino-N-(4-(4,5-dimethyl-1H-imidazol-1-yl)pyridin-3-yl)-6-fluoropyrazolo[1,5-a]pyrimidine-3-carboxamide]	++ (Compounds with a Cisplatin sensitization value >0.02 μM but <0.2 μM are marked with “++.”)
Nc1nn2cc(F)cnc2c1C(=O)Nc1cncc(F)c1N1CCCCC1 [I-N-270, 2-amino-6-fluoro-N-(5-fluoro-4-(piperidin-1-yl)pyridin-3-yl)pyrazolo[1,5-a]pyrimidine-3-carboxamide]	+++ (Compounds with a Cisplatin sensitization value of <0.02 μM are marked with “+++.”)
Nc1nn2cc(F)cnc2c1C(=O)Nc1cnccc1N1CCC(S(=O)(=O)N2CCC2)CC1 [I-N-271, 2-amino-N-(4-(4-(azetidin-1-ylsulfonyl)piperidin-1-yl)pyridin-3-yl)-6-fluoropyrazolo[1,5-a]pyrimidine-3-carboxamide]	+++ (Compounds with a Cisplatin sensitization value of <0.02 μM are marked with “+++.”)
CN1CCOC2(CCN(c3c(F)cncc3NC(=O)c3c(N)nn4cc(F)cnc34)CC2)C1 [I-N-272, 2-amino-6-fluoro-N-(5-fluoro-4-(4-methyl-1-oxa-4,9-diazaspiro[5.5]undecan-9-yl)pyridin-3-yl)pyrazolo[1,5-a]pyrimidine-3-carboxamide]	+++ (Compounds with a Cisplatin sensitization value of <0.02 μM are marked with “+++.”)
Nc1nn2cc(F)cnc2c1C(=O)Nc1cncc(F)c1N1CCC(S(=O)(=O)N2CCN3CCC2CC3)CC1 [I-N-273, N-(4-(4-(1,4-diazabicyclo[3.2.2]nonan-4-ylsulfonyl)piperidin-1-yl)-5-fluoropyridin-3-yl)-2-amino-6-fluoropyrazolo[1,5-a]pyrimidine-3-carboxamide]	+++ (Compounds with a Cisplatin sensitization value of <0.02 μM are marked with “+++.”)
Nc1nn2cc(F)cnc2c1C(=O)Nc1cncc(F)c1N1CCN(C(=O)C2CCOC2)CC1 (stereo not drawn) [I-N-274, 2-amino-6-fluoro-N-(5-fluoro-4-(4-(tetrahydrofuran-3-carbonyl)piperazin-1-yl)pyridin-3-yl)pyrazolo[1,5-a]pyrimidine-3-carboxamide]	+++ (Compounds with a Cisplatin sensitization value of <0.02 μM are marked with “+++.”)
CC(=O)N1CCN(c2c(F)cncc2NC(=O)c2c(N)nn3cc(F)cnc23)CC1 [I-N-275, N-(4-(4-acetylpiperazin-1-yl)-5-fluoropyridin-3-yl)-2-amino-6-fluoropyrazolo[1,5-a]pyrimidine-3-carboxamide]	+++ (Compounds with a Cisplatin sensitization value of <0.02 μM are marked with “+++.”)
Nc1nn2cc(F)cnc2c1C(=O)Nc1cncc(F)c1N1CCN(C(=O)C2CC2)CC1 [I-N-276, 2-amino-N-(4-(4-(cyclopropanecarbonyl)piperazin-1-yl)-5-fluoropyridin-3-yl)-6-fluoropyrazolo[1,5-a]pyrimidine-3-carboxamide]	+++ (Compounds with a Cisplatin sensitization value of <0.02 μM are marked with “+++.”)
Nc1nn2cc(F)cnc2c1C(=O)Nc1cncc(F)c1N1CCN(C(=O)C2COC2)CC1 [I-N-278, 2-amino-6-fluoro-N-(5-fluoro-4-(4-(oxetane-3-carbonyl)piperazin-1-yl)pyridin-3-yl)pyrazolo[1,5-a]pyrimidine-3-carboxamide]	+++ (Compounds with a Cisplatin sensitization value of <0.02 μM are marked with “+++.”)
Nc1nn2cc(F)cnc2c1C(=O)Nc1cncc(F)c1N1CCN2C(=O)CCC[C@H]2C1 [I-N-279, (S)-2-amino-6-fluoro-N-(5-fluoro-4-(6-oxohexahydro-1H-pyrido[1,2-a]pyrazin-2(6H)-yl)pyridin-3-yl)pyrazolo[1,5-a]pyrimidine-3-carboxamide]	+++ (Compounds with a Cisplatin sensitization value of <0.02 μM are marked with “+++.”)
Nc1nn2cc(F)cnc2c1C(=O)Nc1cncc(Cl)c1N1CCCC1 [I-N-281, 2-amino-N-(5-chloro-4-(pyrrolidin-1-yl)pyridin-3-yl)-6-fluoropyrazolo[1,5-a]pyrimidine-3-carboxamide]	+++ (Compounds with a Cisplatin sensitization value of <0.02 μM are marked with “+++.”)
COCC1CCN(c2ccncc2NC(=O)c2c(N)nn3cc(F)cnc23)CC1 [I-N-282, 2-amino-6-fluoro-N-(4-(4-(methoxymethyl)piperidin-1-yl)pyridin-3-yl)pyrazolo[1,5-a]pyrimidine-3-carboxamide]	+++ (Compounds with a Cisplatin sensitization value of <0.02 μM are marked with “+++.”)
Cc1cncn1-c1ccncc1NC(=O)c1c(N)nn2cc(F)cnc12 [I-N-283, 2-amino-6-fluoro-N-(4-(5-methyl-1H-imidazol-1-yl)pyridin-3-yl)pyrazolo[1,5-a]pyrimidine-3-carboxamide]	++ (Compounds with a Cisplatin sensitization value >0.02 μM but <0.2 μM are marked with “++.”)
Nc1nn2cc(F)cnc2c1C(=O)Nc1cncc(Cl)c1N1CCC(O)C1 (stereo not drawn) [I-N-284, 2-amino-N-(5-chloro-4-(3-hydroxypyrrolidin-1-yl)pyridin-3-yl)-6-fluoropyrazolo[1,5-a]pyrimidine-3-carboxamide]	+++ (Compounds with a Cisplatin sensitization value of <0.02 μM are marked with “+++.”)
N#C[C@@H]1CCN(c2c(Cl)cncc2NC(=O)c2c(N)nn3cc(F)cnc23)C1 [I-N-285, (R)-2-amino-N-(5-chloro-4-(3-cyanopyrrolidin-1-yl)pyridin-3-yl)-6-fluoropyrazolo[1,5-a]pyrimidine-3-carboxamide]	++ (Compounds with a Cisplatin sensitization value >0.02 μM but <0.2 μM are marked with “++.”)
CN1CC2CN(c3c(Cl)cncc3NC(=O)c3c(N)nn4cc(F)cnc34)CC2C1 (stereo not drawn) [I-N-286, 2-amino-N-(5-chloro-4-(5-methylhexahydropyrrolo[3,4-c]pyrrol-2(1H)-yl)pyridin-3-yl)-6-fluoropyrazolo[1,5-a]pyrimidine-3-carboxamide]	++ (Compounds with a Cisplatin sensitization value >0.02 μM but <0.2 μM are marked with “++.”)
